Laboratory results as given in patent US20200306295A1, “METHOD AND DEVICE FOR ANNIHILATION OF Staphylococcus aureus” (priority 2017, published 2020).

System: 200 kinds of cytokines
Assay: Fold change of 200 cytokines in homogenized wound tissue
Format: in vivo, Balb/c mice
Settings: mean; wound tissue
Text: To quantify the physiological condition of the wound tissues, we measured the concentrations of 200 kinds of cytokines (Table. 1) from the supernatant of homogenized tissue solution. Cytokines are small secreted proteins released by cells and have specific effect on the interactions and communications between cells (25).
To initiate the formation of a skin wound, five groups (n=5) of eight-week old female Balb/c mice (obtained from Harlan Laboratories, Indianapolis, Ind., USA) were disinfected with ethanol (70%) and shaved on the middle of the back (approximately a one-inch by one-inch square region around the injection site) one day prior to infection as described from a reported procedure (3). To prepare the bacterial inoculum, an aliquot of overnight culture of MRSA USA300 was transferred to fresh Tryptic soy broth and shaken at 37° C. until an OD600 value of ˜1.0 was achieved. The cells were centrifuged, washed once with PBS, re-centrifuged, and then re-suspended in PBS. Mice subsequently received an intradermal injection (40 μL) containing 2.40×10^9 CFU/mL MRSA USA300.
One group of mice was left untreated (negative control). Each group of mice receiving a particular treatment regimen was housed separately in a ventilated cage with appropriate bedding, food, and water. […] Mice were treated twice daily (once every 12 hours) for three days, before they were humanely euthanized via CO2 asphyxiation 12 hours after the last dose was administered. The region around the skin wound was lightly swabbed with ethanol (70%) and excised. The tissue was subsequently homogenized in PBS. The homogenized tissue was then serially diluted in PBS before plating onto mannitol salt agar plates. Plates were incubated for at least 19 hours at 37° C. before viable MRSA CFU/mL were counted for each group. Outlier was removed based upon the Dixon Q Test.

Structure (SMILES): OO [H2O2, hydrogen peroxide]
- fold change of IL-1ra: 0.1670
- fold change of IL-2: −0.1860
- fold change of IL-2 Ra: 0.2015
- fold change of IL-3: −0.1781
- fold change of IL-3 Rb: −0.0953
- fold change of IL-4: −0.2011
- fold change of IL-5: −0.3106
- fold change of IL-6: −0.2775
- fold change of IL-7: −0.0083
- fold change of IL-7 Ra: −0.4620
- fold change of IL-9: 0.0482
- fold change of IL-10: −0.1759
- fold change of IL-12p40: 0.0200
- fold change of IL-12p70: −0.1362
- fold change of IL-13: −0.4855
- fold change of IL-15: −0.1351
- fold change of IL-17: 1.4006
- fold change of IL-17B: −0.2485
- fold change of IL-17B R: 0.0438
- fold change of IL-17E: −0.3214
- fold change of IL-17F: 0.6993
- fold change of IL-20: −0.1274
- fold change of IL-21: −0.5851
- fold change of IL-22: −0.5330
- fold change of IL-23: 0.1392
- fold change of IL-28: 0.2046
- fold change of IL-33: −0.6370
- fold change of JAM-A: −0.2998
- fold change of KC: −0.0602
- fold change of Kremen-1: −0.4532
- fold change of L-Selectin: −0.1755
- fold change of LIX: −0.2304
- fold change of LOX-1: 0.0229
- fold change of Leptin: −0.1401
- fold change of Leptin R: −0.1563
- fold change of Limitin: 0.5441
- fold change of Lipocalin-2: −0.0669
- fold change of Lungkine: −0.0954
- fold change of Lymphotactin: 0.0191
- fold change of MCP-1: 0.9431
- fold change of MCP-5: −0.8808
- fold change of MCSF: −0.0002
- fold change of MDC: 0.5488
- fold change of MFG-E8: −0.1414
- fold change of MIG: −0.1127
- fold change of MIP-1a: −0.3107
- fold change of MIP-1b: −0.4967
- fold change of MIP-1g: −0.0241
- fold change of MIP-2: −0.0277
- fold change of MIP-3a: 0.3267
- fold change of MIP-3b: −0.1993
- fold change of MMP-2: −0.5768
- fold change of MMP-3: −0.0983
- fold change of MMP-10: −0.1476
- fold change of MadCAM-1: −0.3032
- fold change of Marapsin: −0.0476
- fold change of Neprilysin: −0.2555
- fold change of OPG: −0.2142
- fold change of OPN: −0.2307
- fold change of P-selectin: −0.4006
- fold change of PDGF-AA: −0.4666
- fold change of PF4: −0.7429
- fold change of Pentraxin 3: −0.7179
- fold change of Persephin: −0.3386
- fold change of Pro-MMP-9: 0.0213
- fold change of Prolactin: 0.2852
- fold change of RAGE: −0.0350
- fold change of RANTES: −0.4249
- fold change of Resistin: −0.3623
- fold change of SCF: 0.1915
- fold change of SDF-1a: −0.0807
- fold change of SLAM: −0.0883
- fold change of Shh-N: −0.1527
- fold change of TACI: −0.2636
- fold change of TARC: −0.4322
- fold change of TCA-3: −0.2756
- fold change of TCK-1: −0.4843
- fold change of TECK: 0.1734
- fold change of TGFb1: −0.1570
- fold change of TNF RI: −0.2939
- fold change of TNF RII: −0.1233
- fold change of TNFα: 0.1039
- fold change of TPO: −0.0215
- fold change of TRANCE: 0.0878
- fold change of TREM-1: 0.0703
- fold change of TROY: −0.0721
- fold change of TSLP: −0.1726
- fold change of TWEAK: −0.1667
- fold change of TWEAK R: −0.4445
- fold change of TremL1: −0.2695
- fold change of VCAM-1: −0.1357
- fold change of VEGF: −0.0295
- fold change of VEGF R1: −0.4184
- fold change of VEGF R3: −0.0705
- fold change of VEGF-B: −0.0693
- fold change of VEGF-D: −0.0146
- fold change of bFGF: −0.2542
- fold change of gp130: 0.1048
- fold change of sFRP-3: −0.1892
